{
  "source": "ChEMBL document CHEMBL5380872",
  "about": "“Development of a Potent Nurr1 Agonist Tool for In Vivo Applications” (J Med Chem, 2023)",
  "key": {"[1]": {"biological_target": "T1, Nuclear receptor subfamily 4immunitygroup A member 1 (Homo sapiens, UniProt P22736)", "T1 sequence (P22736 whole entry)": "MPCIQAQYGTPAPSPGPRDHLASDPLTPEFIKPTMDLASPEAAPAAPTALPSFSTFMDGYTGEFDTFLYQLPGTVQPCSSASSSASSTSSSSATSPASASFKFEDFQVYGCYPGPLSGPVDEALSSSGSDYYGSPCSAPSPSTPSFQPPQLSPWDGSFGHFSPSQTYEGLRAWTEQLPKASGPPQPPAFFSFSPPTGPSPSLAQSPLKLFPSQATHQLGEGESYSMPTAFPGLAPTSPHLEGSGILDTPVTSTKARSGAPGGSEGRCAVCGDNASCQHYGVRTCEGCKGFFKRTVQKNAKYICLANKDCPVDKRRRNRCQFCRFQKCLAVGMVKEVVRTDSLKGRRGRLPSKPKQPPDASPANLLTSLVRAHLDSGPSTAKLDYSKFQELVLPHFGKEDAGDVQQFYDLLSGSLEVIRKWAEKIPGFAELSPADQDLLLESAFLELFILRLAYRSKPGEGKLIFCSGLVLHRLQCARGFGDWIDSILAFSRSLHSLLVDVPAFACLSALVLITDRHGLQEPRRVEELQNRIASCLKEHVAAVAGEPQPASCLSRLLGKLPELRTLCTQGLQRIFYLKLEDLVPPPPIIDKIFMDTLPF", "description": "(§1) Agonist activity at Nur77 (unknown origin) by Gal4 hybrid reporter gene assay"}, "[2]": {"biological_target": "Nuclear receptor subfamily 4 group A member 3 (Homo sapiens, UniProt Q92570)", "sequence (Q92570 whole entry)": "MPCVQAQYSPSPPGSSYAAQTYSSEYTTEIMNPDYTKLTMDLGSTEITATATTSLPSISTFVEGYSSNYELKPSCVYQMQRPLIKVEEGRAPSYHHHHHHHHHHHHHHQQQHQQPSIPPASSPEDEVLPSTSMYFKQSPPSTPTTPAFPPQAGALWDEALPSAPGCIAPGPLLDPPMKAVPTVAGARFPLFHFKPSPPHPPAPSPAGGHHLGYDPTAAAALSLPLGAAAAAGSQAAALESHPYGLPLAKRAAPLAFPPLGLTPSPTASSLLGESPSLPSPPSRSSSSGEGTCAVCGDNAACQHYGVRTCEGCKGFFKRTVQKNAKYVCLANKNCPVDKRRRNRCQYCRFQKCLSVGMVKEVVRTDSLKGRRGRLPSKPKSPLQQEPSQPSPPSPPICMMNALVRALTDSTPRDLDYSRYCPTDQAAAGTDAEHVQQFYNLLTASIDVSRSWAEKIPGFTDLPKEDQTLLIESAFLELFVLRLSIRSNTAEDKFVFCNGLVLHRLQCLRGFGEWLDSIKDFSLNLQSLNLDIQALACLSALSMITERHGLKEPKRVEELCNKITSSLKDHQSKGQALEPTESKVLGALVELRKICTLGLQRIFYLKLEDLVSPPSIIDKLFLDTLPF", "description": "Agonist activity at NOR1 (unknown origin) by Gal4 hybrid reporter gene assay"}, "[3]": {"biological_target": "T2, Thyroid hormone receptor alpha (Homo sapiens, UniProt P10827)", "T2 sequence (P10827 whole entry)": "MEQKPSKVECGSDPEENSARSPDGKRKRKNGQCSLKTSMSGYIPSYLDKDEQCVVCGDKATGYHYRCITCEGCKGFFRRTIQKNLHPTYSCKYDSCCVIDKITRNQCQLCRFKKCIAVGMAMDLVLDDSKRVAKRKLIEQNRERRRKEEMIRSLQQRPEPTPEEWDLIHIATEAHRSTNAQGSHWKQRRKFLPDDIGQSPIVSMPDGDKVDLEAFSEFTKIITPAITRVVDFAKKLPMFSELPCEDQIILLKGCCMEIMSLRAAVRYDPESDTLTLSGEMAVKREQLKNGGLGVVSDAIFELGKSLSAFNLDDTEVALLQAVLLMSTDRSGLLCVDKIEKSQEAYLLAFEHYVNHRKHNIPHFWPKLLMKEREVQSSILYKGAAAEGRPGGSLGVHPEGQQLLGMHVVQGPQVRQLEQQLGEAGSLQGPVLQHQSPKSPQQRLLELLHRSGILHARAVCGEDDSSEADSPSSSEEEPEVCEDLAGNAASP", "description": "Agonist activity at human THRalpha-LBD transfected in HEK293T cells co-transfected with pFR-Luc/pRL-SV40 assessed as transfection efficiency by measuring luciferase activity measured after 16 hrs by Gal4 hybrid reporter gene assay"}, "[4]": {"biological_target": "T3, Retinoic acid receptor alpha (Homo sapiens, UniProt P10276)", "T3 sequence (P10276 whole entry)": "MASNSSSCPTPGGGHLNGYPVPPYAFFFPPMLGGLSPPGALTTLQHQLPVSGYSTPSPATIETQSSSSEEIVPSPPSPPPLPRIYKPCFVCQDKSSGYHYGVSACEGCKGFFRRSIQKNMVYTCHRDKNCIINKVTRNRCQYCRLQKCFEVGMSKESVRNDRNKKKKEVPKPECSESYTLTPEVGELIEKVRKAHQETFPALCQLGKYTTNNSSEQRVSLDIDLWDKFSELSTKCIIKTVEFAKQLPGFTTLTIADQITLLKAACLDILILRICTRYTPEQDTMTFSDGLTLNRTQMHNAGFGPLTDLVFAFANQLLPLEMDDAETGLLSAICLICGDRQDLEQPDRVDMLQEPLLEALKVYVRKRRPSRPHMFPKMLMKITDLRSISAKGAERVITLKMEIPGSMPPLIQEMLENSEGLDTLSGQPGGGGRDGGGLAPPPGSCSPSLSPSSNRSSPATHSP", "description": "Agonist activity at human RARalpha-LBD transfected in HEK293T cells co-transfected with pFR-Luc/pRL-SV40 assessed as transfection efficiency by measuring luciferase activity measured after 16 hrs by Gal4 hybrid reporter gene assay"}, "[5]": {"biological_target": "T4, Peroxisome proliferator-activated receptor alpha (Homo sapiens, UniProt Q07869)", "T4 sequence (Q07869 whole entry)": "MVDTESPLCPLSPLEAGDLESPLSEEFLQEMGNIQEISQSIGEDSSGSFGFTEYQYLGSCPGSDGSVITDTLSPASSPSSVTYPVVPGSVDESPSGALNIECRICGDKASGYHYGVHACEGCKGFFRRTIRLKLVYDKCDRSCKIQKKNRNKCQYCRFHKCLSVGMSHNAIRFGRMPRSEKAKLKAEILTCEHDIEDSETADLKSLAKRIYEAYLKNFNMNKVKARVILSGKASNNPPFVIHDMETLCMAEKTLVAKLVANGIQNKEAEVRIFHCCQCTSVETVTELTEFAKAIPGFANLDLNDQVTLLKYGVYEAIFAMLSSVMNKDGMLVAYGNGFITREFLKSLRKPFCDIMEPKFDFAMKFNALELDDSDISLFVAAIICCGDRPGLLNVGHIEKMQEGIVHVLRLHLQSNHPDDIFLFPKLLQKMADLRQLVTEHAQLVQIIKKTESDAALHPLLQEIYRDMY", "description": "Agonist activity at human PPARalpha-LBD transfected in HEK293T cells co-transfected with pFR-Luc/pRL-SV40 assessed as transfection efficiency by measuring luciferase activity measured after 16 hrs by Gal4 hybrid reporter gene assay"}, "[6]": {"biological_target": "T5, Peroxisome proliferator-activated receptor gamma (Homo sapiens, UniProt P37231)", "T5 sequence (P37231 whole entry)": "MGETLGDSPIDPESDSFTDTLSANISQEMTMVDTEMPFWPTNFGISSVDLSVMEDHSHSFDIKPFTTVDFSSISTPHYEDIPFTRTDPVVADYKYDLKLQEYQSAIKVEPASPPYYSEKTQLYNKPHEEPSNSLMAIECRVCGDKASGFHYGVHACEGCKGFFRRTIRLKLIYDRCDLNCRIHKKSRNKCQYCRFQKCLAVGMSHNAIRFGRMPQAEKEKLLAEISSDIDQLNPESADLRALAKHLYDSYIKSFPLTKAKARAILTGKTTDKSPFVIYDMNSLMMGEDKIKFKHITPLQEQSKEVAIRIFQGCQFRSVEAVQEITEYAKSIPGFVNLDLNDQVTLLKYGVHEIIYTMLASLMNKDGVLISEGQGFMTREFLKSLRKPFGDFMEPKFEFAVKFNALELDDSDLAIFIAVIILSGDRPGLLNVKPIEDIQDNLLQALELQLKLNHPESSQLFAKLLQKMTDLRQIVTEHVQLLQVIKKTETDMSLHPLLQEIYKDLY", "description": "Agonist activity at human PPARgamma-LBD transfected in HEK293T cells co-transfected with pFR-Luc/pRL-SV40 assessed as transfection efficiency by measuring luciferase activity measured after 16 hrs by Gal4 hybrid reporter gene assay"}, "Vitamin D3 receptor": {"biological_target": "T6, Vitamin D3 receptor (Homo sapiens, UniProt P11473)", "T6 sequence (P11473 whole entry)": "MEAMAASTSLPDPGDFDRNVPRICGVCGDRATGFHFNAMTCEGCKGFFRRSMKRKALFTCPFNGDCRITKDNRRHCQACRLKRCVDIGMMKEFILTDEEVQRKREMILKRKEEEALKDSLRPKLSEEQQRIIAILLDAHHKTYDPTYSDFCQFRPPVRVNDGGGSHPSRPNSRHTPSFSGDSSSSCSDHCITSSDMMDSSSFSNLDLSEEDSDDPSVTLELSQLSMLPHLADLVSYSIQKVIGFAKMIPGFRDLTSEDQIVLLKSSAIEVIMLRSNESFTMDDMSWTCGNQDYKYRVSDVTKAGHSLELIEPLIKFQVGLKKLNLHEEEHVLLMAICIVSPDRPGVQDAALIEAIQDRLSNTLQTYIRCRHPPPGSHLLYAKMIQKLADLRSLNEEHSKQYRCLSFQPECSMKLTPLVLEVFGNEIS", "description": "Agonist activity at human VDR-LBD transfected in HEK293T cells co-transfected with pFR-Luc/pRL-SV40 assessed as transfection efficiency by measuring luciferase activity measured after 16 hrs by Gal4 hybrid reporter gene assay"}, "Bile acid receptor": {"biological_target": "T7, Bile acid receptor (Homo sapiens, UniProt Q96RI1)", "T7 sequence (Q96RI1 whole entry)": "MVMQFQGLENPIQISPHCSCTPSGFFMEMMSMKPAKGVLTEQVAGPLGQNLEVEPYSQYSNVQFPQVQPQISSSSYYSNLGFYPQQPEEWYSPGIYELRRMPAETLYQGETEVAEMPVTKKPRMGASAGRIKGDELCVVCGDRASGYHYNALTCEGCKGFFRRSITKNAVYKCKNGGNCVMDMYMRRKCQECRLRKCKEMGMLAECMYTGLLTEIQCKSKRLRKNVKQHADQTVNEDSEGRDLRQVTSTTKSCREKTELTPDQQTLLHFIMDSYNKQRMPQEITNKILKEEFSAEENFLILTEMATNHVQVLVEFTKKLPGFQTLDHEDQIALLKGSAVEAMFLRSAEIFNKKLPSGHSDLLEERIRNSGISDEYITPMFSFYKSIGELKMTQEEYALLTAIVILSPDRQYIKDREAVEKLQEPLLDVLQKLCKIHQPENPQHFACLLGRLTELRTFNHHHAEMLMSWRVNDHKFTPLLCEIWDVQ", "description": "Agonist activity at human FXR-LBD transfected in HEK293T cells co-transfected with pFR-Luc/pRL-SV40 assessed as transfection efficiency by measuring luciferase activity measured after 16 hrs by Gal4 hybrid reporter gene assay"}, "[7]": {"biological_target": "T8, Retinoic acid receptor RXR-alpha (Homo sapiens, UniProt P19793)", "T8 sequence (P19793 whole entry)": "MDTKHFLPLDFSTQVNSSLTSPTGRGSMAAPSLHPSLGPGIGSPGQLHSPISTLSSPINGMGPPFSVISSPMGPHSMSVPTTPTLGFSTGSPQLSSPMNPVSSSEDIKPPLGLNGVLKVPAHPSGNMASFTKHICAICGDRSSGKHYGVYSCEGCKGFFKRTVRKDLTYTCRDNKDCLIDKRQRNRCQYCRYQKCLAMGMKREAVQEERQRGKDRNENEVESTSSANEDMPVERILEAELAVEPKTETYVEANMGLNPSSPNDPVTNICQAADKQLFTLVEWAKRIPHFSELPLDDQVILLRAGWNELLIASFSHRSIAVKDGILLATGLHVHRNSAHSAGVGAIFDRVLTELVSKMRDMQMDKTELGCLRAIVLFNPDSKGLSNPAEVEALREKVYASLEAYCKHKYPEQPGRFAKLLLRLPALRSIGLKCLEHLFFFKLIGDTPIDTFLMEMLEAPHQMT", "description": "Agonist activity at human RXRalpha-LBD transfected in HEK293T cells co-transfected with pFR-Luc/pRL-SV40 assessed as transfection efficiency by measuring luciferase activity measured after 16 hrs by Gal4 hybrid reporter gene assay"}, "[8]": {"biological_target": "Dihydroorotate dehydrogenase (quinone), mitochondrial (Rattus norvegicus, UniProt Q63707)", "sequence (Q63707 whole entry)": "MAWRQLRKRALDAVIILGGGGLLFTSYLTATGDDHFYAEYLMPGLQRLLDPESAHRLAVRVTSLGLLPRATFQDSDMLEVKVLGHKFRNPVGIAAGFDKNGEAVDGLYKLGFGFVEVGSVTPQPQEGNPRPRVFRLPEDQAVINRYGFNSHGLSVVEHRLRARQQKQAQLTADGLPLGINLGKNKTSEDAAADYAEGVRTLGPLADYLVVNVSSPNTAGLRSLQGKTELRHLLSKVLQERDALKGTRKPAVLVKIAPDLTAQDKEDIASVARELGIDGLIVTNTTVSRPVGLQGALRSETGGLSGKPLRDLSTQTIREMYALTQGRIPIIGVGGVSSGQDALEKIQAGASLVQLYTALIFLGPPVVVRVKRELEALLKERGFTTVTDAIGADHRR", "description": "Inhibition of rat recombinant DHODH by colorimetric assay"}, "[9]": {"details": "rat, in vivo, po, 5 mg/kg, 8 h"}, "in vivo": {"assay": "in vivo", "details": "Sprague-Dawley, rat, po, 5 mg/kg"}, "[10]": {"biological_target": "T1, Nuclear receptor subfamily 4immunitygroup A member 1", "assay": "cell-based", "description": "as §1"}},
  "data": [
    {"smiles": "COc1cccc(-c2ccc(NC(=O)C3=C(C(=O)O)CCC3)c(F)c2)c1", "note": "[VIDOFLUDIMUS]", "values": [
      {"measurement": "EC50", "setting": "[1]", "result": 3.1, "unit": "µM"},
      {"measurement": "EC50", "setting": "[2]", "result": 2.9, "unit": "µM"},
      {"measurement": "EC50", "setting": "[3]", "result": "> 10", "unit": "µM"},
      {"measurement": "EC50", "setting": "[4]", "result": "> 10", "unit": "µM"},
      {"measurement": "EC50", "setting": "[5]", "result": "> 10", "unit": "µM"},
      {"measurement": "EC50", "setting": "[6]", "result": "> 10", "unit": "µM"},
      {"measurement": "EC50", "setting": "Vitamin D3 receptor", "result": "> 10", "unit": "µM"},
      {"measurement": "EC50", "setting": "Bile acid receptor", "result": "> 10", "unit": "µM"},
      {"measurement": "EC50", "setting": "[7]", "result": "> 10", "unit": "µM"}
    ]},
    {"smiles": "C#CCOc1cccc(-c2ccc(NC(=O)C3=C(C(=O)O)CCC3)c(F)c2)c1", "values": [
      {"measurement": "IC50", "setting": "[8]", "result": 6, "unit": "µM"},
      {"measurement": "Cmax", "setting": "[9]", "result": 56, "unit": "µM"},
      {"measurement": "AUC at 8 h", "setting": "in vivo", "result": 290, "unit": "µM·h"},
      {"measurement": "EC50", "setting": "[10]", "result": 1.4, "unit": "µM"}
    ]}
  ]
}
